Data as given in patent publication US12590099B2, “Inhibitors of histone deacetylase useful for the treatment or prevention of HIV infection” (Merck Sharp & Dohme LLC, priority 2018, dated 2026).
Read-outs that look alike come from different tables or passages of the source.

Legend:
KARN cells (Jurkat 2C4) = assay: cells; type: cell-based; details: Homo sapiens, Jurkat, luciferase induction, 100% = 2 μM SAHA
Method in brief: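 Jurkat 2C4 (KARN) cells dosed with test compounds up to 40 μM final, 0.4% DMSO, overnight at 5% CO2; luciferase read by Steady-Glo luminescence after 10 min at room temperature. DMSO set as 0% and 2 μM SAHA as 100% induction; 4-parameter fit of percent activation.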

Recombinant human HDAC1 = biological target: T1, Recombinant human HDAC1 (Homo sapiens, UniProt Q13547); assay: Human HDAC enzyme inhibitor Fluor-de-Lys assay, HDAC1; type: biochemical; details: recombinant human HDAC1, Fluor-de-Lys assay
T1 construct: FLAG (C); made in house
Method in brief: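 Fluor-de-Lys format at room temperature (23° C.): compounds titrated 10-point, 1:3, preincubated with HDAC before substrate addition; HDAC1 run at 0.3 nM enzyme with 20 μM BML-KI104. Developer with excess HDAC inhibitor ends the reaction, and trypsin-liberated AMC fluorescence is the read-out.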

[1] = read-out: Karn EC50 (nM) 0.1% NHS, 0.1% normal human serum
[2] = read-out: Karn EC50 (nM) 5% NHS, 5% normal human serum

T1 sequence (Q13547 whole entry): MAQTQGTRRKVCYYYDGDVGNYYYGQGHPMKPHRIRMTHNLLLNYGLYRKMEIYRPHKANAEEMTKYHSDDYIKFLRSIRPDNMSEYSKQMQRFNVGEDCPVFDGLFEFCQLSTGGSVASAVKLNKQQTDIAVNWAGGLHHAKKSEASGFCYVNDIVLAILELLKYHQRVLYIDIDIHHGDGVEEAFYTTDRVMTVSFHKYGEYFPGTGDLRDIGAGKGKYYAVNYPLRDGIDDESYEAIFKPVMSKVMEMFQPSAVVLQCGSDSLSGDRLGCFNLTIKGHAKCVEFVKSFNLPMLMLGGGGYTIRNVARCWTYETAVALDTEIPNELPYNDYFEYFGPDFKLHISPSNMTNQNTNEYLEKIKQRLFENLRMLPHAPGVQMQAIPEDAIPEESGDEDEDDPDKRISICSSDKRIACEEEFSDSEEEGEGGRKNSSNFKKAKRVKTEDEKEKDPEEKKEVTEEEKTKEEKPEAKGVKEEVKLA

Structure (SMILES) | EC50 (KARN cells (Jurkat 2C4); [1]) | EC50 (KARN cells (Jurkat 2C4); [2]) | IC50 (Recombinant human HDAC1)
CCC(=O)CCCCC[C@H](NCC1CN(C)C1)c1ncc(-c2cc3ccc(C)nc3cc2OC)o1 [Compound 401, (9S)-9-[5-(7-methoxy-2-methylquinolin-6-yl)-1,3-oxazol-2-yl]-9-{[(1-methylazetidin-3-yl)methyl]amino}nonan-3-one] | 1840 nM | 2210 nM | 0.0321 µM
CCN[C@@H](CCCCCC(=O)CC)c1ncc(-c2cc3ccc(C)nc3cc2OC)[nH]1 [Compound 403] | 5340 nM | 5600 nM | 0.248 µM
CCC(=O)CCCCC[C@H](NCc1ccncc1)c1ncc(-c2cc3ccc(C)nc3cc2OC)[nH]1 [Compound 404] | > 40000 nM | > 40000 nM | 0.367 µM
CCC(=O)CCCCC[C@H](NC(=O)[C@H]1CC12CCN(C)CC2)c1ncc(-c2cc3ccncc3cc2OC)o1 [Compound 405] | 65 nM | 57 nM | 0.0003 µM
CCC(=O)CCCCC[C@H](NC(=O)[C@H]1CC12CCN(C)CC2)c1ncc(-c2cc3ccc(N(C)C)nc3cc2OC)o1 [Compound 406] | 280 nM | 279 nM | 0.00083 µM
CCC(=O)CCCCC[C@H](NC(=O)[C@H]1CC12CCN(C)CC2)c1ncc(-c2cc3ocnc3cc2OC)o1 [Compound 408] | 250 nM | 593 nM | 0.00382 µM
CCC(=O)CCCCCC(N)(COC)c1ncc(-c2cc3ccc(C)nc3cc2OC)[nH]1 (stereo not drawn) [Compound 414, 9-amino-10-methoxy-9-[5-(7-methoxy-2-methylquinolin-6-yl)-1H-imidazol-2-yl]decan-3-one] | > 40000 nM | > 40000 nM | > 0.9 µM
CCC(=O)CCCCC[C@H](NC(=O)C1=NOC2(CCN(C)CC2)C1)c1ncc(-c2cc3ccncc3cc2OC)o1 [Compound 415] | 105 nM | 118 nM | 0.00331 µM
CCCC(=O)CCCCC[C@H](NC(=O)[C@H]1CC12CCN(CC1CC1)CC2)c1ncc(-c2cc3ccc(C)nc3cc2OC)[nH]1 [Compound 416] | 11 nM | 15 nM | < 0.00158 µM
CCC(=O)CCCCCC(CC)(NC(=O)[C@H]1CC12CCN(CC1CC1)CC2)c1nc(-c2cc3ccc(C)nc3cc2OC)c[nH]1 (stereo partly drawn) [Compound 420, (1S)-6-(cyclopropylmethyl)-N-{3-[4-(7-methoxy-2-methylquinolin-6-yl)-1H-imidazol-2-yl]-9-oxoundecan-3-yl}-6-azaspiro[2.5]octane-1-carboxamide] | 11800 nM | > 40000 nM | 0.484 µM
CCC(=O)CCCCC[C@H](NC(=O)[C@H]1CC12CCN(CC1CC1)CC2)c1ncc(-c2cc3ccc(C)nc3cc2OC)o1 [Compound 422] | 15 nM | 10 nM | 0.00017 µM
CCCC(=O)CCCCC[C@H](N)c1ncc(-c2cc3ccc(C)nc3cc2OC)[nH]1 [Compound A30] | 1490 nM | 5610 nM | 0.0606 µM
